In ChEMBL document CHEMBL2150932, “Structure-activity relationships and molecular modeling of 1,2,4-triazoles as adenosine receptor antagonists” (ACS Med Chem Lett, 2012):

Legend:
[1] = target: T1, Adenosine receptor A2b (Homo sapiens) (UniProt P29275); assay: Antagonist activity at human A2B adenosine receptor expressed in CHO cells assessed as inhibition of NECA-induced cAMP accumulation at 10 uM after 20 mins; format: functional, cell-based
T1 sequence (whole entry): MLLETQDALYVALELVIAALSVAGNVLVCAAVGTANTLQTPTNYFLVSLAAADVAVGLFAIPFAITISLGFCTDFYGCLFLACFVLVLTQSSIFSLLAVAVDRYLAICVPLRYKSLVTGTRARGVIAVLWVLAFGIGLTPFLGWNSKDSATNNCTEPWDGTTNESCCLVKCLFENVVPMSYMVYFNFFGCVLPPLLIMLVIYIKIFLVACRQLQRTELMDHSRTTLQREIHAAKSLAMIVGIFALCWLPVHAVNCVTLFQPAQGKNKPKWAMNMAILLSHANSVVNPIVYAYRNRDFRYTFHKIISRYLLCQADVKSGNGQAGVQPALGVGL

[2] = target: T2, Adenosine receptor A2a (Homo sapiens, UniProt P29274); assay: Displacement of [3H]CGS21680 from human A2A adenosine receptor expressed in HEK293 cells after 60 mins by liquid scintillation counting; format: cell-based
[3] = target: T3, Adenosine receptor A1 (Homo sapiens, UniProt P30542); assay: Inhibition of human A1 adenosine receptor expressed in CHO cells after 60 mins by liquid scintillation counting; format: cell-based
T3 sequence (P30542 whole entry): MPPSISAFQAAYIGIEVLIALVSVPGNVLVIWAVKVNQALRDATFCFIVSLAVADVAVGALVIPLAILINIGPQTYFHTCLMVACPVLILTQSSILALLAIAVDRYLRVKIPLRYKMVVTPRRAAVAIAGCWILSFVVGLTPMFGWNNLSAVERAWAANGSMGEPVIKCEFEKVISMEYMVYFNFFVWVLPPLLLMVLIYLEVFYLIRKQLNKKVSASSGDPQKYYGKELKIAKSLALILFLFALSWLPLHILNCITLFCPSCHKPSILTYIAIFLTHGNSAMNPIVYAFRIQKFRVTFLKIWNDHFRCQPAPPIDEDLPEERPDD

[4] = target: T4, Adenosine receptor A3 (Homo sapiens, UniProt P0DMS8); assay: Displacement of […] from human A3 adenosine receptor expressed in CHO cells after 60 mins by liquid scintillation counting; format: cell-based
T4 sequence (P0DMS8 whole entry): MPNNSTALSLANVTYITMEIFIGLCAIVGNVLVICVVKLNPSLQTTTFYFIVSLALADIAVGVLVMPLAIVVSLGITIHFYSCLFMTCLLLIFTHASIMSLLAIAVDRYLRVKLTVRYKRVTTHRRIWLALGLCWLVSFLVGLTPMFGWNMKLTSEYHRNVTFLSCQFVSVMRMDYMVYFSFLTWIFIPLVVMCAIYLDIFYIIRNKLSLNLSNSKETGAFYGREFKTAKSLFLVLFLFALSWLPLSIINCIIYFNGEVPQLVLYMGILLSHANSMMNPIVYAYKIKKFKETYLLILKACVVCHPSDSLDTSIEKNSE

[5] = target: T5, Adenosine receptor A1 (Homo sapiens) (UniProt P30542); assay: Inhibition of human A1 adenosine receptor expressed in CHO cells at 10 uM after 60 mins by liquid scintillation counting; format: cell-based
T5 sequence (whole entry): T3 sequence (P30542 whole entry)

[6] = target: T2, Adenosine receptor A2a; assay: Displacement of [3H]CGS21680 from human A2A adenosine receptor expressed in HEK293 cells at 10 uM after 60 mins by liquid scintillation counting; format: cell-based

T2 sequence (P29274 whole entry): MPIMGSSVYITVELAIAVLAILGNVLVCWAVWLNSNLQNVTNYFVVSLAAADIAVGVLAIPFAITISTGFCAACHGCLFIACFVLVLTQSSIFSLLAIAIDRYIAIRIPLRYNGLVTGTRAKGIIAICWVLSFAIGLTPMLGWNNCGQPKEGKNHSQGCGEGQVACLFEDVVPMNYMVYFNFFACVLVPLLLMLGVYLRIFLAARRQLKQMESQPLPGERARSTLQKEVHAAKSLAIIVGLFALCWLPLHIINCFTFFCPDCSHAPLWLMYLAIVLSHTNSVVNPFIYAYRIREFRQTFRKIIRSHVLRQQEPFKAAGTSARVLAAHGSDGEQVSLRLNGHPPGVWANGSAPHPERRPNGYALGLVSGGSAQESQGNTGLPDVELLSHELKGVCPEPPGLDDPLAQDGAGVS

| SMILES | inhibition [1] [%] | Ki [2] [nM] | Ki [3] [nM] | Ki [4] [nM] | inhibition [5] [%] | inhibition [6] [%] |
| --- | --- | --- | --- | --- | --- | --- |
| CCCC(=O)Nc1nc(-c2ccccc2)n[nH]1 | 5 |  |  |  |  |  |
| Cc1cccc(O[C@H](C)C(=O)Nc2nnc(-c3ccccc3)[nH]2)c1 |  | 1200 |  |  |  |  |
| O=C(Nc1nc(-c2ccccc2)n[nH]1)c1ccccc1 | 72 |  |  |  |  |  |
| COc1ccccc1C(=O)Nc1nc(-c2ccccc2)n[nH]1 | 16 | 200 | 500 | 600 |  |  |
| Cc1ccc(C(=O)Nc2nc(-c3ccccc3)n[nH]2)cc1 | 29 | 300 | 1300 | 100 |  |  |
| COc1ccccc1OCC(=O)Nc1nnc(-c2ccc(C)cc2)[nH]1 |  |  |  | 1000 |  |  |
| C[C@@H](Oc1ccccc1F)C(=O)Nc1nnc(-c2ccccc2)[nH]1 |  | 1000 | 3700 | 2600 |  |  |
| CC(C)(Oc1ccc(Cl)cc1)C(=O)Nc1nc(-c2ccccc2)n[nH]1 | 6 |  |  |  | 41 |  |
| Cc1cccc(-c2n[nH]c(NC(=O)[C@@H](C)Oc3ccccc3)n2)c1 |  | 1800 |  | 6300 | 12 |  |
| O=C(COc1ccccc1)Nc1nnc(-c2ccccc2)[nH]1 |  | 1800 |  | 2300 |  |  |
| C[C@@H](Oc1ccccc1F)C(=O)Nc1nc(-c2ccccc2)n[nH]1 | 31 |  |  |  |  |  |
| C[C@@H](Oc1ccccc1)C(=O)Nc1nc(-c2ccccc2)n[nH]1 | 23 | 1000 | 5200 | 3300 |  |  |
| Cc1cc(C)cc(OCC(=O)Nc2nnc(-c3ccccc3)[nH]2)c1 |  | 3200 | 1600 | 2700 |  |  |
| CC[C@@H](Oc1ccccc1)C(=O)Nc1nc(-c2ccccc2)n[nH]1 | -9 | 1400 | 1500 | 1900 |  |  |
| CC(=O)Nc1nc(-c2ccccc2)n[nH]1 | 10 |  |  |  | 18 | 43 |
| Cc1cccc(OCC(=O)Nc2nc(-c3ccccc3)n[nH]2)c1 | 8 | 2000 | 2300 | 1500 |  |  |
| O=C(Nc1nnc(-c2ccccc2)[nH]1)c1ccccc1 |  | 400 | 1900 | 300 |  |  |
| O=C(CCc1ccccc1)Nc1nc(-c2ccccc2)n[nH]1 | 40 | 3400 |  | 8300 | 40 |  |
| O=C(Nc1nc(-c2ccccc2)n[nH]1)c1ccc(Cl)cc1 | -2 |  |  |  | 31 |  |
| O=C(COc1ccccc1)Nc1nc(-c2ccccc2)n[nH]1 | 16 |  |  |  | 20 |  |
| Cc1cccc(C)c1OCC(=O)Nc1nc(-c2ccccc2)n[nH]1 | 43 | 1700 |  | 5500 | 49 |  |
| COc1ccccc1NC(=O)Nc1nnc(-c2ccccc2)[nH]1 |  | 200 |  | 300 |  |  |
| O=C(Nc1nc(-c2ccccc2)n[nH]1)C1CCCO1 (centres undefined) | -7 | 5900 | 3200 | 3100 |  |  |
| Cc1ccc(O[C@H](C)C(=O)Nc2nc(-c3ccccc3)n[nH]2)cc1 | -6 | 6400 |  | 1400 | 38 |  |
| COc1ccc(CC(=O)Nc2nc(-c3ccccc3)n[nH]2)cc1 | -6 |  |  |  | 29 |  |
| Cc1ccc(-c2n[nH]c(NC(=O)COc3ccccc3)n2)cc1 | 23 |  |  |  |  |  |
